Source: ChEMBL document CHEMBL4330132, “5-Keto-3-cyano-2,4-diaminothiophenes as selective maternal embryonic leucine zipper kinase inhibitors” (Bioorg Med Chem Lett, 2019)

Assays:
[1] = biological target: Serine/threonine-protein kinase 38 (Homo sapiens) (UniProt Q15208); assay: Binding affinity to wild-type human partial length NDR1 (N33 to E449 residues) expressed in mammalian expression system assessed as residual binding level at 1 uM by Kinomescan method relative to control
[2] = system: Tyrosine-protein kinase ABL1 (Homo sapiens), P00519 [F317L]; assay: Binding affinity to human non-phosphorylated ABL1 F317L mutant (S229 to K512 residues) expressed in mammalian expression system assessed as residual binding level at 1 uM by Kinomescan method relative to control
[3] = biological target: Mitogen-activated protein kinase 6 (Homo sapiens) (UniProt Q16659); assay: Binding affinity to wild-type human partial length ERK3 (M1 to P413 residues) expressed in bacterial expression system assessed as residual binding level at 1 uM by Kinomescan method relative to control
Sequence of Mitogen-activated protein kinase 6 (Homo sapiens) (Q16659 whole entry, the tested form may be a part): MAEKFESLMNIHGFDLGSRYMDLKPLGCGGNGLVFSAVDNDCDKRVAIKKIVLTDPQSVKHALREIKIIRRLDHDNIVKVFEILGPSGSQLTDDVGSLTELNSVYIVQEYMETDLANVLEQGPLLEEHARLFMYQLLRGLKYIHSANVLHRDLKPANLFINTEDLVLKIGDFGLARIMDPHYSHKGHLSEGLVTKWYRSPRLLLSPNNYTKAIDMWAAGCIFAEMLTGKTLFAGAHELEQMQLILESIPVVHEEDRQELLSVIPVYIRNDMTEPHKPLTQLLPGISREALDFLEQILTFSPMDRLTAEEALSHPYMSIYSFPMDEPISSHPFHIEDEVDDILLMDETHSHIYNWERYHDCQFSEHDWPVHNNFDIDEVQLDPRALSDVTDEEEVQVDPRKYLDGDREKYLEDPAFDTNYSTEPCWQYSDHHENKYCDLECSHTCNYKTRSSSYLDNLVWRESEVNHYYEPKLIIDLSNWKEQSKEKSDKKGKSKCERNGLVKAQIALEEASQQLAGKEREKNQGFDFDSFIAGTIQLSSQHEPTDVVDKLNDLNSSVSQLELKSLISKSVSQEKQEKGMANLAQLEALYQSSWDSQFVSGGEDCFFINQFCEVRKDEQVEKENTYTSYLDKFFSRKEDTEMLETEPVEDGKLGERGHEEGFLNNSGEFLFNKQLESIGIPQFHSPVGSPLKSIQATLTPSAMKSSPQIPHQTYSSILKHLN

[4] = biological target: Phosphatidylinositol 4-kinase beta (Homo sapiens) (UniProt Q9UBF8); assay: Binding affinity to wild-type human full length PIK4CB (M1 to M828 residues) expressed in mammalian expression system assessed as residual binding level at 1 uM by Kinomescan method relative to control
[5] = biological target: CDK4/Cyclin D3 (Homo sapiens) (UniProt P11802+P30281); assay: Binding affinity to wild-type human full length CDK4/cyclinD3 (M1 to E303 residues) expressed in mammalian expression system assessed as residual binding level at 1 uM by Kinomescan method relative to control
[6] = biological target: Ribosomal protein S6 kinase alpha-6 (Homo sapiens) (UniProt Q9UK32); assay: Binding affinity to wild-type human partial length C-terminal RSK4 kinase domain 2 (I401 to Y711 residues) expressed in bacterial expression system assessed as residual binding level at 1 uM by Kinomescan method relative to control
Sequence of Ribosomal protein S6 kinase alpha-6 (Homo sapiens) (Q9UK32 whole entry, the tested form may be a part): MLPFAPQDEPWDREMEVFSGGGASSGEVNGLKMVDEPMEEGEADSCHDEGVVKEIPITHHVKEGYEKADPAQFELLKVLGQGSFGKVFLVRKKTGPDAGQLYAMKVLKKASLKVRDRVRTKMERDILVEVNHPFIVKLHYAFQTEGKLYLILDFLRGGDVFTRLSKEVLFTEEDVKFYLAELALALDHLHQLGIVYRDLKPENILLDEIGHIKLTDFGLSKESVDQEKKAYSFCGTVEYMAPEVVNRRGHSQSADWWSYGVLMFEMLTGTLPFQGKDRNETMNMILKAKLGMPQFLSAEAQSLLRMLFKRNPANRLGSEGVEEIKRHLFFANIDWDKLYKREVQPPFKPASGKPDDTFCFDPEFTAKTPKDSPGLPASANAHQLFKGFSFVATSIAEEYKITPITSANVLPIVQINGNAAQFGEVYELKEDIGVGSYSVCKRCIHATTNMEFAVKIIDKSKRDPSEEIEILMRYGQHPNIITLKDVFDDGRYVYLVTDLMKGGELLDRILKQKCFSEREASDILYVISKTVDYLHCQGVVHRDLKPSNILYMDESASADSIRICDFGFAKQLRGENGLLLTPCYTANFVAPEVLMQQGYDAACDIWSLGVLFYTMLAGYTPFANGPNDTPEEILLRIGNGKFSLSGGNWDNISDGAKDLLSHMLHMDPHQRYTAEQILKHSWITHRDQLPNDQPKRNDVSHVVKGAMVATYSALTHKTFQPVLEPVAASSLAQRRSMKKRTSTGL

[7] = biological target: Proto-oncogene tyrosine-protein kinase receptor Ret (Homo sapiens) (UniProt P07949); assay: Binding affinity to wild-type human partial length RET (E713 to D1014 residues) expressed in bacterial expression system assessed as residual binding level at 1 uM by Kinomescan method relative to control
[8] = biological target: Citron Rho-interacting kinase (Homo sapiens) (UniProt O14578); assay: Binding affinity to wild-type human partial length CIT (M68 to E432 residues) expressed in bacterial expression system assessed as residual binding level at 1 uM by Kinomescan method relative to control
[9] = biological target: ALK tyrosine kinase receptor (Homo sapiens) (UniProt Q9UM73); assay: Binding affinity to wild-type human partial length ALK (I1088 to E1409 residues) expressed in mammalian expression system assessed as residual binding level at 1 uM by Kinomescan method relative to control
[10] = biological target: AP2-associated protein kinase 1 (Homo sapiens) (UniProt Q2M2I8); assay: Binding affinity to human wild-type AAK1 (G25 to L333 residues) expressed in bacterial expression system assessed as residual binding level at 1 uM by Kinomescan method relative to control
[11] = biological target: Bone morphogenetic protein receptor type-1A (Homo sapiens) (UniProt P36894); assay: Binding affinity to wild-type human partial length BMPR1A (Q214 to I532 residues) expressed in bacterial expression system assessed as residual binding level at 1 uM by Kinomescan method relative to control
[12] = biological target: Tyrosine-protein kinase receptor TYRO3 (Homo sapiens) (UniProt Q06418); assay: Binding affinity to wild-type human partial length TYRO3 (S497 to T814 residues) expressed in bacterial expression system assessed as residual binding level at 1 uM by Kinomescan method relative to control
Sequence of Tyrosine-protein kinase receptor TYRO3 (Homo sapiens) (Q06418 whole entry, the tested form may be a part): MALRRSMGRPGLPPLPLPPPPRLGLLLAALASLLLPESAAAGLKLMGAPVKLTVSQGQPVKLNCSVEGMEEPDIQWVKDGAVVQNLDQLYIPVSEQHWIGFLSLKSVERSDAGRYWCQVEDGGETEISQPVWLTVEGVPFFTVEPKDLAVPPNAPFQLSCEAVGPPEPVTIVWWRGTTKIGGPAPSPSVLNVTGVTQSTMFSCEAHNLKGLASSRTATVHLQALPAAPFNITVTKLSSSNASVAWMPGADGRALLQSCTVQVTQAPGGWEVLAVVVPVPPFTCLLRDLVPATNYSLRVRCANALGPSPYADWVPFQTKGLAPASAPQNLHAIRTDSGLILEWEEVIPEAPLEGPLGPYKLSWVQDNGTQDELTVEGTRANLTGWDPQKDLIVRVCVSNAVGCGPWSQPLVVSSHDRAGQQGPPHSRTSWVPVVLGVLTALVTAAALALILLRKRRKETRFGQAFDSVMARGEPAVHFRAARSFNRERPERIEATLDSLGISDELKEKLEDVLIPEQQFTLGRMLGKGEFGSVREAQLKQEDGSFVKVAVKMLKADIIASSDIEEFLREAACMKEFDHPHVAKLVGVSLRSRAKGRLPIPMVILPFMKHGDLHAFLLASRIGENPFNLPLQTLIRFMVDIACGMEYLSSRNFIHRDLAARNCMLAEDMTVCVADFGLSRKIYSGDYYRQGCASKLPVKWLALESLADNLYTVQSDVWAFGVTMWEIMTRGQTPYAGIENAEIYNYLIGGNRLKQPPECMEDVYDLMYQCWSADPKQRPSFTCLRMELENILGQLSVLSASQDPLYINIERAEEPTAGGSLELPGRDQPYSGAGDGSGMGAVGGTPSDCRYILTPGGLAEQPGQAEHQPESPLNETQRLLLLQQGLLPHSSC

[13] = biological target: Serine/threonine-protein kinase PRP4 homolog (Homo sapiens) (UniProt Q13523); assay: Binding affinity to wild-type human partial length PRP4 (D657 to I1007 residues) expressed in bacterial expression system assessed as residual binding level at 1 uM by Kinomescan method relative to control
[14] = biological target: TGF-beta receptor type-2 (Homo sapiens) (UniProt P37173); assay: Binding affinity to wild-type human partial length TGFBR2 (I218 to K567 residues) expressed in bacterial expression system assessed as residual binding level at 1 uM by Kinomescan method relative to control
[15] = biological target: Tyrosine-protein kinase Fgr (Homo sapiens) (UniProt P09769); assay: Binding affinity to wild-type human partial length FGR (L233 to T529 residues) expressed in bacterial expression system assessed as residual binding level at 1 uM by Kinomescan method relative to control
Sequence of Tyrosine-protein kinase Fgr (Homo sapiens) (P09769 2-529 limits assumed): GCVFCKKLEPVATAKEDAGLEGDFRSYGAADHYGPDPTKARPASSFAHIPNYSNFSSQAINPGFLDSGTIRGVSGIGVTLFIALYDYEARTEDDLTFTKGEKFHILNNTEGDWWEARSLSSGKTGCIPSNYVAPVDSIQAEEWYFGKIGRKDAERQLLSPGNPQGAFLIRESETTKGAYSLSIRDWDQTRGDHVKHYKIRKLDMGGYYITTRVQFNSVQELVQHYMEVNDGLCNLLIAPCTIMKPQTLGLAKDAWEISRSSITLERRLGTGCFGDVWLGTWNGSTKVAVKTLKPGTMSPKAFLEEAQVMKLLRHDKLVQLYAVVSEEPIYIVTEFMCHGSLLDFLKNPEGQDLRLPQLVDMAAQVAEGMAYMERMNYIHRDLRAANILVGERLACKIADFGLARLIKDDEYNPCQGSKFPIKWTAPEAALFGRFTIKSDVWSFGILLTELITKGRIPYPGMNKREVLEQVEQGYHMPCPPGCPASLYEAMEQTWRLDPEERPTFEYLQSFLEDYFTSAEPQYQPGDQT

[16] = biological target: Phosphatidylinositol 4,5-bisphosphate 3-kinase catalytic subunit alpha isoform (Homo sapiens) (UniProt P42336); assay: Binding affinity to wild-type human partial length PIK3CA (R108 to N1068 residues) expressed in mammalian expression system assessed as residual binding level at 1 uM by Kinomescan method relative to control
[17] = biological target: Calcium/calmodulin-dependent protein kinase type II subunit beta (Homo sapiens) (UniProt Q13554); assay: Binding affinity to wild-type human partial length CAMK2B (M1 to Q380 residues) expressed in bacterial expression system assessed as residual binding level at 1 uM by Kinomescan method relative to control
[18] = biological target: Ephrin type-A receptor 3 (Homo sapiens) (UniProt P29320); assay: Binding affinity to wild-type human partial length EPHA3 (D604 to K889 residues) expressed in bacterial expression system assessed as residual binding level at 1 uM by Kinomescan method relative to control
[19] = biological target: Dual serine/threonine and tyrosine protein kinase (Homo sapiens) (UniProt Q6XUX3); assay: Binding affinity to wild-type human full length RIPK5 (M1 to T929 residues) expressed in mammalian expression system assessed as residual binding level at 1 uM by Kinomescan method relative to control
Sequence of Dual serine/threonine and tyrosine protein kinase (Homo sapiens) (Q6XUX3 whole entry, the tested form may be a part): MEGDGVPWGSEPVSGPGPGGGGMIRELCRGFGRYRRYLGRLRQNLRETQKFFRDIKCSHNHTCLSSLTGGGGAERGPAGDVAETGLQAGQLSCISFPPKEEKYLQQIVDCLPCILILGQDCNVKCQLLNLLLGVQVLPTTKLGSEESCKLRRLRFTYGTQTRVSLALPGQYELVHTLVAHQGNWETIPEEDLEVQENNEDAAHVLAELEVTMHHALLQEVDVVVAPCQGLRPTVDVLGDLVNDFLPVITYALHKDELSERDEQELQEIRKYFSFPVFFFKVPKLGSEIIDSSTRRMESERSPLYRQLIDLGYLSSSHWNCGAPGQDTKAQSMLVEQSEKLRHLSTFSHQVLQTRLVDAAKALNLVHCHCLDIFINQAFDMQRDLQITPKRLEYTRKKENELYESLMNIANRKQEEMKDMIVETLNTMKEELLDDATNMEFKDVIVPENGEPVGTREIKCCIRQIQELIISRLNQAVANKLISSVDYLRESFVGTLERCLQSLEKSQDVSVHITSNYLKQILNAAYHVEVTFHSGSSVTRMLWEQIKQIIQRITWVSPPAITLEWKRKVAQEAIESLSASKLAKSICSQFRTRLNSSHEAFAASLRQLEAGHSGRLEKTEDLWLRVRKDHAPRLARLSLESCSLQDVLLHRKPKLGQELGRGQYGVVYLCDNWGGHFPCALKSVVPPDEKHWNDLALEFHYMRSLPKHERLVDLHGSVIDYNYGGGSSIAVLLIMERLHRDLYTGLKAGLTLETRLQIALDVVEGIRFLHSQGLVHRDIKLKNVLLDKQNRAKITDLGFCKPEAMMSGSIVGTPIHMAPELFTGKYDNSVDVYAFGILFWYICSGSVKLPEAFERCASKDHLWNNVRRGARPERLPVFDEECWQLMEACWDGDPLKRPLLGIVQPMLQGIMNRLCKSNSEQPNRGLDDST

[20] = biological target: Serine/threonine-protein kinase VRK2 (Homo sapiens) (UniProt Q86Y07); assay: Binding affinity to wild-type human partial length VRK2 (M1 to T336 residues) expressed in mammalian expression system assessed as residual binding level at 1 uM by Kinomescan method relative to control
[21] = biological target: Cyclin-dependent kinase-like 3 (Homo sapiens) (UniProt Q8IVW4); assay: Binding affinity to wild-type human partial length CDKL3 (M1 to D327 residues) expressed in bacterial expression system assessed as residual binding level at 1 uM by Kinomescan method relative to control
[22] = biological target: Serine/threonine-protein kinase ULK2 (Homo sapiens) (UniProt Q8IYT8); assay: Binding affinity to wild-type human partial length ULK2 (M1 to S301 residues) expressed in mammalian expression system assessed as residual binding level at 1 uM by Kinomescan method relative to control
[23] = biological target: SNF-related serine/threonine-protein kinase (Homo sapiens) (UniProt Q9NRH2); assay: Binding affinity to wild-type human partial length SNRK (M1 to E339 residues) expressed in mammalian expression system assessed as residual binding level at 1 uM by Kinomescan method relative to control
Sequence of SNF-related serine/threonine-protein kinase (Homo sapiens) (Q9NRH2 whole entry, the tested form may be a part): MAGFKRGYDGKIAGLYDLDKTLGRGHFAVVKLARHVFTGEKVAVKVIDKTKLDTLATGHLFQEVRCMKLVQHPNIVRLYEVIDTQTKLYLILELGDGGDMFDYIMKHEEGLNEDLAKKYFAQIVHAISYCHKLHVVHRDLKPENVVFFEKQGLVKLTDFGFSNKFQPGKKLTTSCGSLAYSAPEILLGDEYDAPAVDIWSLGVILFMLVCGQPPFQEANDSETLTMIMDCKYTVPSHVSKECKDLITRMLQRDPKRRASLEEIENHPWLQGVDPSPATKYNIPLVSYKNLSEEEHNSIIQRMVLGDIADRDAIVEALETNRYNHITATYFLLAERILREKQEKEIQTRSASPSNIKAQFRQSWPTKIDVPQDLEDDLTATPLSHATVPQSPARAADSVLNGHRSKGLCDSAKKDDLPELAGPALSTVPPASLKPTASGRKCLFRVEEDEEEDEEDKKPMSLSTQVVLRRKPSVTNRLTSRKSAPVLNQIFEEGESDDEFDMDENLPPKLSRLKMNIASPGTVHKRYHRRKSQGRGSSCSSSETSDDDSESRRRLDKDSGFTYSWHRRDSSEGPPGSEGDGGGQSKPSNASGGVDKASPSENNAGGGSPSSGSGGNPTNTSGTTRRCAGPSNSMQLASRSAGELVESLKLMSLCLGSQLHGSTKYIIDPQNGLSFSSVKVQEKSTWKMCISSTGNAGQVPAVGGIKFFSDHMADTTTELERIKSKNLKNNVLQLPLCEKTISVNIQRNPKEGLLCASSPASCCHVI

[24] = biological target: SRSF protein kinase 3 (Homo sapiens) (UniProt Q9UPE1); assay: Binding affinity to wild-type human partial length SRPK3 (P41 to P567 residues) expressed in bacterial expression system assessed as residual binding level at 1 uM by Kinomescan method relative to control
[25] = biological target: RAC-alpha serine/threonine-protein kinase (Homo sapiens) (UniProt P31749); assay: Binding affinity to wild-type human partial length AKT1 expressed in bacterial expression system assessed as residual binding level at 1 uM by Kinomescan method relative to control

Sequence of Serine/threonine-protein kinase 38 (Homo sapiens) (Q15208 2-465 limits assumed): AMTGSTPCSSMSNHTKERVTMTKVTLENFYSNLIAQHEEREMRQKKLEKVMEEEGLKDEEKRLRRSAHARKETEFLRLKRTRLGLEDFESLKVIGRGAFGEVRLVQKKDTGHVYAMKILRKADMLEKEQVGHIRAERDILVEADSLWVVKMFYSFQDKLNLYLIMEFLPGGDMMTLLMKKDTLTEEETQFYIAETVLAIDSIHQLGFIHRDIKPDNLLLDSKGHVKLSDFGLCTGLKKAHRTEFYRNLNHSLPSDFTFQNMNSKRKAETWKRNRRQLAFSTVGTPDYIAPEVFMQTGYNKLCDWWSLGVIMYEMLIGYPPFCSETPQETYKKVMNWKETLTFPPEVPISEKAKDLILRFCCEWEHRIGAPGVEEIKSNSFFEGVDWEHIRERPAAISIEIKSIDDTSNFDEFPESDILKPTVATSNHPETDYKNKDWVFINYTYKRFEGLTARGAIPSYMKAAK

Work on CC(C)Nc1sc(C(=O)c2ccc(Cl)s2)c(N)c1C#N yielded an Activity [1] of 74%, an Activity [2] of 100% and an Activity [3] of 100%. It also gave an Activity [4] of 100%, an Activity [5] of 100% and an Activity [6] of 90%. It also gave an Activity [7] of 97%, an Activity [8] of 72% and an Activity [9] of 100%. For the same compound, the Activity [10] was 16%, the Activity [11] was 100% and the Activity [12] was 92%. It also gave an Activity [13] of 100%, an Activity [14] of 100% and an Activity [15] of 97%. The Activity [16] was 100%, the Activity [17] was 60% and the Activity [18] was 72%. For the same compound, the Activity [19] was 85%, the Activity [20] was 100% and the Activity [21] was 47%. The Activity [22] was 100%, the Activity [23] was 91% and the Activity [24] was 96%. The Activity [25] was 84%.
